The nature of assay [1]: THP-1 cell cytotoxicity, dose response, cytotoxicity control for Vif-APOBEC3G degradation inhibitor project, THP-1 cells (AID 1117359). In kind it is functional. To be noted: Human immunodeficiency virus 1, THP-1.
Assay [2] concerns the target T1, Replicative DNA helicase DnaB (Mycobacterium tuberculosis, UniProt P9WMR3).
T1 sequence (P9WMR3 whole entry): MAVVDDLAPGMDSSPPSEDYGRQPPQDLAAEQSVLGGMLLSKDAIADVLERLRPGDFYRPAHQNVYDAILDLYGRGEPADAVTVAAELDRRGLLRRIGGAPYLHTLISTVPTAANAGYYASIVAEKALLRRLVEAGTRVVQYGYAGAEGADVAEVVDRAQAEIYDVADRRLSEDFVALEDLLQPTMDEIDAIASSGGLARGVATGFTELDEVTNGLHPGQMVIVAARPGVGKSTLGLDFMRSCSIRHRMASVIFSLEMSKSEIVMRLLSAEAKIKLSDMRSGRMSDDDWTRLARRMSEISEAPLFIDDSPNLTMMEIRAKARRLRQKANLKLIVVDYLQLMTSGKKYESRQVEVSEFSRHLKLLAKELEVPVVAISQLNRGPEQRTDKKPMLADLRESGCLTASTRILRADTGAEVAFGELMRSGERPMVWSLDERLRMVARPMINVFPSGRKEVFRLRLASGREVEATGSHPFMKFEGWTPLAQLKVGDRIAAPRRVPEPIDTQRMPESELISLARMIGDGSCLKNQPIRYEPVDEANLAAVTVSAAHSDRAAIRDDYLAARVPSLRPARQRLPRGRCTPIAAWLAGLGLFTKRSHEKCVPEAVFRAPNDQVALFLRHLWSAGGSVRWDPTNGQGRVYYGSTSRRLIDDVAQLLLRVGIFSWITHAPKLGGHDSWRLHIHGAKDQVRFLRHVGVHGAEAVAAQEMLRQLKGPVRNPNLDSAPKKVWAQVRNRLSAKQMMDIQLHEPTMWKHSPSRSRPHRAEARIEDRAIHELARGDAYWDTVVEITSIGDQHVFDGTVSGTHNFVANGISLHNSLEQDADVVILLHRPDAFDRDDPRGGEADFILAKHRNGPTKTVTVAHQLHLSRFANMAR
The assay is described as follows: DnaB intein splicing inhibitors, dose response, biochemical, cell-free fluorescence (AID 449749). In kind it is functional.

The target of assay [3] is T2, Polyadenylate-binding protein 1 (Homo sapiens, UniProt P11940). The assay is described as follows: PABP1 MLLE–PAM2 interaction inhibitors, dose response, miRNA deadenylation inhibitor project, biochemical, fluorescence polarization, Cy5-PAM2 peptide, secondary (AID 602260). In kind it is functional. To be noted: read-out: IC50_Mean. For orientation: Fluorescence polarisation rises when a labelled molecule tumbles more slowly, as on binding a larger partner.
T2 sequence (P11940 whole entry): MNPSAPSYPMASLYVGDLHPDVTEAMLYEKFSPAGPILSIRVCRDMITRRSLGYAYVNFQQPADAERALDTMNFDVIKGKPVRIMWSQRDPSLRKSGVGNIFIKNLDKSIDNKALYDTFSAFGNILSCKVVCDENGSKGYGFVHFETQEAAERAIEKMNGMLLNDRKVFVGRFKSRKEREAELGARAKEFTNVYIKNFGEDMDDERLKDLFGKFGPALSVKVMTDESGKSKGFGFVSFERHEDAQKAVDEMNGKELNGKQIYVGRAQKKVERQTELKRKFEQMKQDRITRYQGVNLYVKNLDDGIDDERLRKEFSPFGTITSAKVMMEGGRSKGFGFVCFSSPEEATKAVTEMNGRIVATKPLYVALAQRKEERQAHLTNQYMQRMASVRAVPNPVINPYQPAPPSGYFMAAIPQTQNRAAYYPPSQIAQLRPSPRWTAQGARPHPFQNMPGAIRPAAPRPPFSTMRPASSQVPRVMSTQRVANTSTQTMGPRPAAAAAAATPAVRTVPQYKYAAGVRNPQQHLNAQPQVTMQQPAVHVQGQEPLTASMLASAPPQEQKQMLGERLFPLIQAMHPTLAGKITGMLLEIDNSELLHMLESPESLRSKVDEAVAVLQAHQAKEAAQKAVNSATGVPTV

The nature of assay [4]: growth suppression of beta-catenin-knockout colon cells, dose response, cell-based, HCT116, human colon tumor (AID 1045).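 Note: HCT116 colon tumor cells with beta catenin knocked out; cells exposed to compound for 60 hours.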 In kind it is functional.
For a further assay, the target named is T3, Protein RecA (Mycobacterium tuberculosis, UniProt P9WHJ3).
T3 sequence (P9WHJ3 whole entry): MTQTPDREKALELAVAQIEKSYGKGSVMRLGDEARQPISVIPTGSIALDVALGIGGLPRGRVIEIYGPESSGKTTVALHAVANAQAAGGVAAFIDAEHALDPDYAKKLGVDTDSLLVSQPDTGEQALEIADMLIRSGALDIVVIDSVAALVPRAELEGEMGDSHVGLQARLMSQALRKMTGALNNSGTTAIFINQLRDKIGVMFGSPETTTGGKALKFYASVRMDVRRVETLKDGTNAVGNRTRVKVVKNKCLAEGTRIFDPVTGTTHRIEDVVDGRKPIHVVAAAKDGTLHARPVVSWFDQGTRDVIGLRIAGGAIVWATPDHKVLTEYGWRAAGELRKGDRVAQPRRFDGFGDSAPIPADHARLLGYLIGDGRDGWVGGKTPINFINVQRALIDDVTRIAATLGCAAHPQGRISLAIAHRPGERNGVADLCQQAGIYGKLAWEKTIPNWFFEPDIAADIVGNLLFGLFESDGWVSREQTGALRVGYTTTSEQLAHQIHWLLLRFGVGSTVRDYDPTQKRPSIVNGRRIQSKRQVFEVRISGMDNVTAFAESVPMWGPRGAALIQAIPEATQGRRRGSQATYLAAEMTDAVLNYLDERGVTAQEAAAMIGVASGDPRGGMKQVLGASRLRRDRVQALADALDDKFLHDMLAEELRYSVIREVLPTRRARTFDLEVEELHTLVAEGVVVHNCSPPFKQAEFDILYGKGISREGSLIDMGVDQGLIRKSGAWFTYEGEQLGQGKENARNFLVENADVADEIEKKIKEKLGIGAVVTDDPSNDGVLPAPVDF
The assay is described as follows: Fluorescence Cell-Free Homogeneous Dose Retest to Identify Inhibitors of RecA-Intein Splicing Activity. [Related pubchem assays (depositor defined):AID2097, AID2223, AID489010, AID492950]. In kind it is functional.

The target of assay [5] is T2, Polyadenylate-binding protein 1. As to the kind of experiment: PABP1 MLLE–PAM2 binding inhibitor potency, dose response, biochemical, fluorescence polarization, FITC-PAM2 peptide (AID 602259). In kind it is functional. To be noted: read-out: IC50_Mean.
Assay [6] is described as follows: growth suppression of PTEN-null colon cells, dose response, cell-based, HCT116 PTEN knockout (AID 1047).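 Note: HCT116 colon tumor cells with PTEN knocked out; cells exposed to compound for 60 hours before readout; potency for loss of cell viability measured by luminescence.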 In kind it is functional.
Assay [7] in a line: human group III sPLA2 inhibitors, dose response, biochemical, QFRET, IC50 (AID 743457).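 Note: green fluorescence rise as the enzyme cleaves BODIPY PC-A2 in liposomes; potency for inhibition of the enzyme.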
The target in the next assay is Albumin (Bos taurus, UniProt P02769). As to the kind of experiment: Counterscreen for inhibitors of T-cell receptor (TCR)-CD3 interaction: Fluorescence-based biochemical high throughput dose response assay to identify inhibitors of T-cell receptor (TCR)-CD3 interaction using a TAMRA-labeled BSA probe. In kind it is functional. In general terms: The purpose of a counterscreen is to sort out artefacts and off-target activity.
Albumin, sequence (P02769 whole entry): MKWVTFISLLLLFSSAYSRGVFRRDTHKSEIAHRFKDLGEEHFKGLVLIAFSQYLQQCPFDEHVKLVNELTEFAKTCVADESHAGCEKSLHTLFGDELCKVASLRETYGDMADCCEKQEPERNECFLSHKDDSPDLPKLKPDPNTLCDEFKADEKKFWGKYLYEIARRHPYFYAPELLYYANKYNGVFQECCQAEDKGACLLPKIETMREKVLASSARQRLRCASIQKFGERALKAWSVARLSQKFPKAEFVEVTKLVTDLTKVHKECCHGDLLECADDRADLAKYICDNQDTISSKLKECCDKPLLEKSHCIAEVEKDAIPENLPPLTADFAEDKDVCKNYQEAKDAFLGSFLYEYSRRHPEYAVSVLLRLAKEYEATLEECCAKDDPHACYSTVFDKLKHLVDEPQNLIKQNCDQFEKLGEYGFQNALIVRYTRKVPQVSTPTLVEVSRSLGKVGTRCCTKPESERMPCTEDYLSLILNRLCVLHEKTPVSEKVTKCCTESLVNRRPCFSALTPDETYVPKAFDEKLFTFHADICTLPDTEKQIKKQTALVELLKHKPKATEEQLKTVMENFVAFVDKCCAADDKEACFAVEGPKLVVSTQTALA

Assay [8] is described as follows: cells. Format: functional, cell-based.
Assay [9] is described as follows: Shn3 3'UTR reporter inhibitors, dose response, cell-based, Clone20 osteoblasts, firefly luciferase, cherry-picked (AID 624132).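 Note: firefly luciferase luminescence from reporter carrying the Shn3 3'UTR in osteoblasts.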 In kind it is functional.
Assay [10] has as its target FAD-linked sulfhydryl oxidase ALR (Homo sapiens, UniProt P55789). As to the kind of experiment: inhibitors of human ALR sulfhydryl oxidase, dose response, biochemical, H2O2 detection, luminescence, cherry-pick (AID 493248).
For another assay, the target named is Large T antigen (Simian virus 40, UniProt P03070). Format: functional, Betapolyomavirus macacae.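 Note: Confirmatory-stage PubChem screen for compounds that inhibit SV40 T antigen.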
Large T antigen, sequence (P03070 whole entry): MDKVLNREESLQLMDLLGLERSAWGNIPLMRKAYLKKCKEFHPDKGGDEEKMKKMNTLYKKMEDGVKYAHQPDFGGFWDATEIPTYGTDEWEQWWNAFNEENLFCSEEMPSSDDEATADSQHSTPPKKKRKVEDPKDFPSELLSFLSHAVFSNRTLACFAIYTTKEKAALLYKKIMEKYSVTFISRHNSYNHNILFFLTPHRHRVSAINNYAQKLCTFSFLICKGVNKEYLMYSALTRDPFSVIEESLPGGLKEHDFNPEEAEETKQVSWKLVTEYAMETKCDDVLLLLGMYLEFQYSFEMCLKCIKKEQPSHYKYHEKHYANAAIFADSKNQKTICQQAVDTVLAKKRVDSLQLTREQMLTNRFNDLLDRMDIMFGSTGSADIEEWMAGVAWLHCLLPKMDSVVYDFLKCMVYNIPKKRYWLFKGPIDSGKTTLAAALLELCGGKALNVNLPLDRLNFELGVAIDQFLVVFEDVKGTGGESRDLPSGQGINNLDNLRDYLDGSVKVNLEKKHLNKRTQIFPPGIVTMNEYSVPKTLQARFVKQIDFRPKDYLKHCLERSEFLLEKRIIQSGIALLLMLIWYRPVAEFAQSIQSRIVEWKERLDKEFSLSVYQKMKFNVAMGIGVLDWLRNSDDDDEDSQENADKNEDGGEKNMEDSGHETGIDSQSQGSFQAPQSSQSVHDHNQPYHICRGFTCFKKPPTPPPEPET
In assay [11] the target is T4, RNA-binding protein pos-1 (Caenorhabditis elegans, UniProt G5EF15).
T4 sequence (G5EF15 whole entry): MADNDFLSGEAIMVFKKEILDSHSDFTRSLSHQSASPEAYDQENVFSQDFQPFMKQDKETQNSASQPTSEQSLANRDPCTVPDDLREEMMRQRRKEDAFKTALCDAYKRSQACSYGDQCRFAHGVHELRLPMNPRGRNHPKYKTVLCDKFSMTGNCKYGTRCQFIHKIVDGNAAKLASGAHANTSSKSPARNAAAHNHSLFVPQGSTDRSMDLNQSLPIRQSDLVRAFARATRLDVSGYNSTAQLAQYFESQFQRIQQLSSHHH
The assay is described as follows: inhibitors of POS-1/mex-3 RNA binding, dose response, biochemical, fluorescence polarization (AID 1964).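 Note: purified POS-1 fused to maltose binding protein made in E. coli; potency of compounds blocking POS-1 binding to fluorescent RNA.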

The nature of assay [12]: control 3'UTR Renilla luciferase suppression, dose response, counter-screen for Shn3 inhibitor project, cell-based, Clone20-Shn3RL, cherry-picked (AID 624133). In kind it is functional.
Assay [13] is described as follows: cells. In kind it is functional, cell-based. The source holds these as a separate data set.
Assay [14] concerns the target T5, Zinc finger protein mex-5 (Caenorhabditis elegans, UniProt Q9XUB2).
T5 sequence (Q9XUB2 whole entry): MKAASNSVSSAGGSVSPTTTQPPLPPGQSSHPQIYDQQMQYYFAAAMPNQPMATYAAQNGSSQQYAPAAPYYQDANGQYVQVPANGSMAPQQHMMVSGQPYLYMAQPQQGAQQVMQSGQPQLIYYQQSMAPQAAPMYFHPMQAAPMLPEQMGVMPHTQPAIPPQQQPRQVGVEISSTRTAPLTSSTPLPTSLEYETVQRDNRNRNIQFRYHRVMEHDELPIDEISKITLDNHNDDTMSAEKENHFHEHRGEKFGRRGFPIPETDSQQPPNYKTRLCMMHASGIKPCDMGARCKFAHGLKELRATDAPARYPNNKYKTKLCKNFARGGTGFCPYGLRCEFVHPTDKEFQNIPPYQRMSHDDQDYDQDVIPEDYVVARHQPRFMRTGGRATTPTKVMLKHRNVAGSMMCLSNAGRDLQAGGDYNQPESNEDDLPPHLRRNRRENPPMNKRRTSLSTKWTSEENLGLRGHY
As to the kind of experiment: MEX-5/TCR-2 RNA interaction inhibitors, dose response, biochemical, C. elegans, fluorescence polarization (AID 1960).

Assay [15] can be described thus: inhibitors of Vif binding to APOBEC3G peptide, primary screen, biochemical, TR-FRET, GST-Vif 1-94, biotin-A3G peptide, dose response retest (AID 1117319).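 Note: TR-FRET signal of purified GST-Vif binding a biotinylated A3G peptide; inhibitors lower the FRET signal by blocking Vif and A3G binding.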 In kind it is functional. (Time-resolved FRET reads energy transfer from a long-lived donor to a nearby acceptor.)
For the next assay, the target named is T6, Protein Tat (Human immunodeficiency virus type 1 group M subtype B (isolate HXB2)(HIV-1), UniProt P04608).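 Note: tat binding to TAR RNA read out by fluorescence polarization.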
T6 sequence (P04608 whole entry): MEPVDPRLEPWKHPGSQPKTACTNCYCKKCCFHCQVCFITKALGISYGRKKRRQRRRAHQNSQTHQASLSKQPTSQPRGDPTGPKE
In kind it is functional.

In a further assay the target is Kallikrein-7 (Homo sapiens, UniProt P49862). As to the kind of experiment: Fluorescence Intensity-based biochemical primary high throughput dose response assay to identify activators of kallikrein-7 (K7) zymogen.
Kallikrein-7, sequence (P49862 whole entry): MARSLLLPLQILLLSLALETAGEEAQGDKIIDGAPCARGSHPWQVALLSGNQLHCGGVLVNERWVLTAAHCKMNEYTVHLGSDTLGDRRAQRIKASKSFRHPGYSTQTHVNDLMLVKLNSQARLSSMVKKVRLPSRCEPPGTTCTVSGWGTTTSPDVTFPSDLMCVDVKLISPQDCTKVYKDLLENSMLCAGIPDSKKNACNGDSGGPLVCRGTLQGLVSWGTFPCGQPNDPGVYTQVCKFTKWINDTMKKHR

The structures appear in SMILES notation. Calls of active or inactive are those of the source. Bounds are passed on as bounds.

The CC50 is the concentration at which the toxic effect on the cells reaches its halfway point. As a reminder, the AC50 is the concentration at which the activity in the assay is half-maximal. As usually defined, the EC50 is the concentration giving half of the maximal effect.

FAD-linked sulfhydryl oxidase ALR, sequence (P55789 whole entry): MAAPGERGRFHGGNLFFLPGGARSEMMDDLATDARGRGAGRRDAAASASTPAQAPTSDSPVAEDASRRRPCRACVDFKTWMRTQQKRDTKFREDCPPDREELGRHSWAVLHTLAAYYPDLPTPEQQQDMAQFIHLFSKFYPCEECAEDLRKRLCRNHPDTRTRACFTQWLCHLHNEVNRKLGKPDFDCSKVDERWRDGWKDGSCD

Turning to `CCC(C(=O)Nc1cc(C(=O)O)ccc1C)c1ccccc1` (centres undefined), in assay [1], the CC50 is > 40 µM (active).
With `O=[N+]([O-])c1c(NCCCO)cc(SCc2ccco2)c2nonc12`, in assay [2], the AC50 was 57.7 µM (active). For the same molecule, the IC50 in assay [3] and in assay [5] was > 66 µM (inactive) each time. For the same molecule, the EC50 was 18 µM (active) in assay [4], 5.64 µM (active) on Protein RecA and 27.1 µM (active) in assay [6]. For the same molecule, the CC50 in assay [1] is > 40 µM (active).
`O=C(NNC(=O)c1ccc2ccccc2c1O)Nc1ccc(F)cc1`: the figures for the IC50 (in assay [7]; on Albumin) were > 122 µM (inactive) and > 94.1 µM (inactive), respectively.
On to `Cc1ccn2cc(-c3ccc(O)c(O)c3)nc2c1`, for which the concentration giving a half-maximal response (EC50) is 6.58 µM (active) in “cells [8]”, 38 µM (active) in [11], > 350 µM (not active) in the assay “cells [13]” and 6.88 µM (active) in [14]. In addition, the AC50 was 2.44 µM (active) in assay [9], 0.558 µM (active) in [10] and 13 µM (active) in assay [12]. The IC50 on Large T antigen is 12.9 µM (active); on Albumin it was > 94.1 µM (inactive).
Consider `COc1ccc(S(=O)(=O)Cc2ccc(C(=O)N3CCN(c4ccccc4)CC3)o2)cc1`, for which the AC50 in assay [10] was 19.1 µM (active). Also, the IC50 (in assay [15]; at Protein Tat) was > 100 µM (active) each time.
On to `CC(=O)Nc1ccc(S(=O)(=O)[N-]c2nc3ccccc3nc2-[n+]2ccc(NC(=O)c3ccccc3)cc2)cc1`, for which the EC50 on Kallikrein-7 is > 69.5 µM (inactive).
For the molecule `CCOCCCn1/c(=N\C(=O)c2ccco2)c(C(=O)OCC)cc2c(=O)n3cccc(C)c3nc21`, the EC50 on Kallikrein-7 was 38.7 µM (inactive).

For the origin of these results see ChEMBL document CHEMBL1201862, “PubChem BioAssay data set” (2004).
